# Target: T1, Human ATX protein (Homo sapiens, UniProt Q13822)
# T1 construct: made in house
# Experiment: Autotaxin (ATX) assay, FRET with FS-3 substrate
# Assay type: biochemical
# Details: 10 uM compound
# Outline: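 In-house human ATX (1.0 μg/mL final) was preincubated with compound for 30 min at room temperature in Tris buffer pH 7.4 with NaCl, KCl, CaCl2, MgCl2 and 1 mg/mL fatty acid-free BSA. FS-3 (2 μM final) was added and the plate shaken 2 h at room temperature in the dark. Fluorescence was read at ex 485/em 538 nm.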
row,Compound,inhibition at 10 µM [%]
1,"Nc1cc2n(n1)CCCN(C(=O)OCc1cc(C(F)(F)F)cc(C(F)(F)F)c1)C2 [Example 279, 3,5-Bis(trifluoromethyl)benzyl 2-amino-7,8-dihydro-4H-pyrazolo[1,5-a][1,4]diazepine-5(6H)-carboxylate]",60
2,"O=C(OCc1cc(C(F)(F)F)cc(C(F)(F)F)c1)N1CCCn2nc(CO)cc2C1 [Example 282, 3,5-bis(trifluoromethyl)benzyl 2-(hydroxymethyl)-7,8-dihydro-4H-pyrazolo[1,5-a][1,4]diazepine-5(6H)-carboxylate]",60

# Same assay, conditions: upper bound bins (no greater than 100, 250 or 500 nM); FS-3 2 μM, ATX 1.0 μg/mL
row,Compound,IC50 [nM]
1,CN1C2CCC1CN(C(=O)c1cc3n(n1)CCCN(C(=O)OCc1cc(C(F)(F)F)cc(C(F)(F)F)c1)C3)C2 [Example 225],≤ 100
2,O=C(O)C1CNCCN1C(=O)c1cc2n(n1)CCCN(C(=O)OCc1cc(Cl)cc(C(F)(F)F)c1)C2 (stereo not drawn) [Example 226],≤ 100
3,O=C(O)C1CN(C(=O)c2cc3n(n2)CCCN(C(=O)OCc2cc(Cl)cc(C(F)(F)F)c2)C3)CCN1 (stereo not drawn) [Example 227],≤ 100
4,O=C(OCc1cc(Cl)cc(Cl)c1)N1CCCn2nc(C(=O)N3CCN4CCC[C@@H]4C3)cc2C1 [Example 228],≤ 100
5,CCC1(CC)CN(C)CCN1C(=O)c1cc2n(n1)CCCN(C(=O)OCc1cc(Cl)cc(C(F)(F)F)c1)C2 [Example 229],≤ 100
6,CN1C2CCCC1CN(C(=O)c1cc3n(n1)CCCN(C(=O)OCc1cc(C(F)(F)F)cc(C(F)(F)F)c1)C3)C2 [Example 230],≤ 100
7,CCC1(CC)CNCCN1C(=O)c1cc2n(n1)CCCN(C(=O)OCc1cc(Cl)cc(C(F)(F)F)c1)C2 [Example 231],≤ 100
8,CN1CCN(C(=O)c2cc3n(n2)CCCN(C(=O)OCc2cc(Cl)cc(C(F)(F)F)c2)C3)C2(CCCC2)C1 [Example 232],≤ 100
9,CN1CCN(C(=O)c2cc3n(n2)CCCN(C(=O)OCc2cc(C(F)(F)F)cc(C(F)(F)F)c2)C3)C2(CCC2)C1 [Example 233],≤ 100
10,O=C(OCc1cc(Cl)cc(C(F)(F)F)c1)N1CCCn2nc(C(=O)N3CCNCC34CCCC4)cc2C1 [Example 234],≤ 100
11,O=C(OCc1cc(C(F)(F)F)cc(C(F)(F)F)c1)N1CCCn2nc(C(=O)N3CCNCC34CCC4)cc2C1 [Example 235],≤ 100
12,CCN1CCN(C(=O)c2cc3n(n2)CCCN(C(=O)OCc2cc(C(F)(F)F)cc(C(F)(F)F)c2)C3)C2(CC2)C1 [Example 237],≤ 100
13,CN1CCN(C(=O)c2cc3n(n2)CCCN(C(=O)OCc2cc(C(F)(F)F)cc(C(F)(F)F)c2)C3)C2(CCCC2)C1 [Example 238],≤ 100
14,CC1(C)CNCCN1C(=O)c1cc2n(n1)CCCN(C(=O)OCc1cc(C(F)(F)F)cc(C(F)(F)F)c1)C2 [Example 239],≤ 100
15,O=C(OCc1cc(C(F)(F)F)cc(C(F)(F)F)c1)N1CCCn2nc(C(=O)N3CCNCC34CCCC4)cc2C1 [Example 240],≤ 100
16,CCC1(CC)CNCCN1C(=O)c1cc2n(n1)CCCN(C(=O)OCc1cc(C(F)(F)F)cc(C(F)(F)F)c1)C2 [Example 241],≤ 100
17,CNC1CN(C(=O)c2cc3n(n2)CCCN(C(=O)OCc2cc(C(F)(F)F)cc(C(F)(F)F)c2)C3)C1 [Example 242],≤ 100
18,CNC1CCN(C(=O)c2cc3n(n2)CCCN(C(=O)OCc2cc(C(F)(F)F)cc(C(F)(F)F)c2)C3)C1 (stereo not drawn) [Example 243],≤ 100
19,CCN1CCN(C(=O)c2cc3n(n2)CCCN(C(=O)OCc2cc(C(F)(F)F)cc(C(F)(F)F)c2)C3)C(C)(C)C1 [Example 244],≤ 100
20,N#CC1CNCCN1C(=O)c1cc2n(n1)CCCN(C(=O)OCc1cc(C(F)(F)F)cc(C(F)(F)F)c1)C2 (stereo not drawn) [Example 245],≤ 100
21,N#CC1CN(C(=O)c2cc3n(n2)CCCN(C(=O)OCc2cc(C(F)(F)F)cc(C(F)(F)F)c2)C3)CCN1 (stereo not drawn) [Example 246],≤ 100
22,C[C@H]1CNC[C@H](C)N1C(=O)c1cc2n(n1)CCCN(C(=O)OCc1cc(C(F)(F)F)cc(C(F)(F)F)c1)C2 [Example 247],≤ 100
23,C[C@@H]1CNC[C@@H](C)N1C(=O)c1cc2n(n1)CCCN(C(=O)OCc1cc(C(F)(F)F)cc(C(F)(F)F)c1)C2 [Example 248],≤ 100
24,CC1CNCC(C)N1C(=O)c1cc2n(n1)CCCN(C(=O)OCc1cc(C(F)(F)F)cc(C(F)(F)F)c1)C2 (stereo not drawn) [Example 249],≤ 100
25,"O=C(CCl)c1cc2n(n1)CCCN(C(=O)OCc1cc(Cl)cc(C(F)(F)F)c1)C2 [Example 250, 3-Chloro-5-(trifluoromethyl)benzyl 2-(2-chloroacetyl)-7,8-dihydro-4H-pyrazolo[1,5-a][1,4]diazepine-5(6H)-carboxylate]",≤ 100

row,Compound,IC50 [nM]
1,"O=C(OCc1cc(C(F)(F)F)cc(C(F)(F)F)c1)N1CCn2nc(C3CN4CCC[C@H]4CO3)cc2C1 (stereo partly drawn) [Example 255, 3,5-bis(trifluoromethyl)benzyl 2-((8aS)-hexahydro-1H-pyrrolo[2,1-c][1,4]oxazin-3-yl)-6,7-dihydropyrazolo[1,5-a]pyrazine-5(4H)-carboxylate]",≤ 100
2,"O=C(OCc1cc(C(F)(F)F)cc(C(F)(F)F)c1)N1CCn2nc(C3CN4CCC[C@@H]4CO3)cc2C1 (stereo partly drawn) [Example 256, 3,5-bis(trifluoromethyl)benzyl 2-((8aR)-hexahydro-1H-pyrrolo[2,1-c][1,4]oxazin-3-yl)-6,7-dihydropyrazolo[1,5-a]pyrazine-5(4H)-carboxylate]",≤ 100
3,"CC1COCCN1CC(=O)c1cc2n(n1)CCCN(C(=O)OCc1cc(Cl)cc(C(F)(F)F)c1)C2 (stereo not drawn) [Example 257, 3-chloro-5-(trifluoromethyl)benzyl 2-(2-(3-methylmorpholino)acetyl)-7,8-dihydro-4H-pyrazolo[1,5-a][1,4]diazepine-5(6H)-carboxylate]",≤ 100
4,O=C(CN1CC2CC2C1)c1cc2n(n1)CCN(C(=O)OCc1cc(C(F)(F)F)cc(C(F)(F)F)c1)C2 (stereo not drawn) [Example 258],≤ 100
5,O=C(CN1CCOCC1)c1cc2n(n1)CCN(C(=O)OCc1cc(C(F)(F)F)cc(C(F)(F)F)c1)C2 [Example 259],≤ 100
6,CC1(C)COCCN1CC(=O)c1cc2n(n1)CCN(C(=O)OCc1cc(C(F)(F)F)cc(C(F)(F)F)c1)C2 [Example 260],≤ 100
7,CC1COCC(C)N1CC(=O)c1cc2n(n1)CCCN(C(=O)OCc1cc(Cl)cc(C(F)(F)F)c1)C2 (stereo not drawn) [Example 261],≤ 100
8,C[C@H]1CCCN1CC(=O)c1cc2n(n1)CCCN(C(=O)OCc1cc(Cl)cc(C(F)(F)F)c1)C2 [Example 262],≤ 100
9,C[C@@H]1CCCN1CC(=O)c1cc2n(n1)CCCN(C(=O)OCc1cc(Cl)cc(C(F)(F)F)c1)C2 [Example 265],≤ 100
10,CC1OCCN(CC(=O)c2cc3n(n2)CCCN(C(=O)OCc2cc(Cl)cc(C(F)(F)F)c2)C3)C1C (stereo not drawn) [Example 266],≤ 100
11,CC1(C)COCCN1CC(=O)c1cc2n(n1)CCCN(C(=O)OCc1cc(Cl)cc(C(F)(F)F)c1)C2 [Example 267],≤ 100
12,CC1CN(CC(=O)c2cc3n(n2)CCCN(C(=O)OCc2cc(Cl)cc(C(F)(F)F)c2)C3)CCO1 (stereo not drawn) [Example 268],≤ 100
13,CC1CN(CC(=O)c2cc3n(n2)CCCN(C(=O)OCc2cc(Cl)cc(C(F)(F)F)c2)C3)CC(C)O1 (stereo not drawn) [Example 269],≤ 100
14,O=C(CN1CCOCC1)c1cc2n(n1)CCCN(C(=O)OCc1cc(Cl)cc(C(F)(F)F)c1)C2 [Example 271],≤ 100
15,O=C(CN1CC(C(=O)O)C1)c1cc2n(n1)CCCN(C(=O)OCc1cc(Cl)cc(C(F)(F)F)c1)C2 [Example 272],≤ 100
16,O=C(CN1CCCC1)c1cc2n(n1)CCCN(C(=O)OCc1cc(Cl)cc(C(F)(F)F)c1)C2 [Example 273],≤ 100
17,"O=C(OCc1cc(Cl)cc(C(F)(F)F)c1)N1CCn2nc(NC3CCNCC3)cc2C1 [Example 274, 3-chloro-5-(trifluoromethyl)benzyl 2-(piperidin-4-ylamino)-6,7-dihydropyrazolo[1,5-a]pyrazine-5(4H)-carboxylate]",≤ 100
18,"CN1CCN(C(=O)c2cc3n(c2)CCCN(C(=O)OCc2cc(Cl)cc(C(F)(F)F)c2)C3)CC1 [Example 277, 3-chloro-5-(trifluoromethyl)benzyl 8-(4-methylpiperazine-1-carbonyl)-4,5-dihydro-1H-pyrrolo[1,2-a][1,4]diazepine-2(3H)-carboxylate]",≤ 100
19,"CN1C2CCC1CN(C(=O)c1cc3n(c1)CCCN(C(=O)OCc1cc(Cl)cc(C(F)(F)F)c1)C3)C2 [Example 278, 3-chloro-5-(trifluoromethyl)benzyl 8-(8-methyl-3,8-diazabicyclo[3.2.1]octane-3-carbonyl)-4,5-dihydro-1H-pyrrolo[1,2-a][1,4]diazepine-2(3H)-carboxylate]",≤ 100
20,O=C(OCc1cc(C(F)(F)F)cc(C(F)(F)F)c1)N1CCCn2nc(Br)cc2C1 [Example 280],≤ 100
21,"COCc1cc2n(n1)CCCN(C(=O)OCc1cc(C(F)(F)F)cc(C(F)(F)F)c1)C2 [Example 285, 3,5-bis(trifluoromethyl)benzyl 2-(methoxymethyl)-7,8-dihydro-4H-pyrazolo[1,5-a][1,4]diazepine-5(6H)-carboxylate]",≤ 100
22,"O=C(OCc1cc(Cl)cc(C(F)(F)F)c1)N1CCCn2nc(C(O)C(F)(F)F)cc2C1 (stereo not drawn) [Example 286, 3-chloro-5-(trifluoromethyl)benzyl 2-(2,2,2-trifluoro-1-hydroxyethyl)-7,8-dihydro-4H-pyrazolo[1,5-a][1,4]diazepine-5(6H)-carboxylate]",≤ 100
23,"CC1(C)C(NCc2cc3n(n2)CCCN(C(=O)OCc2cc(C(F)(F)F)cc(C(F)(F)F)c2)C3)CC1C(=O)O (stereo not drawn) [Example 287, 3-(((5-(((3,5-bis(trifluoromethyl)benzyl)oxy)carbonyl)-5,6,7,8-tetra-hydro-4H-pyrazolo[1,5-a][1,4]diazepin-2-yl)methyl)amino)-2,2-dimethylcyclo-butanecarboxylic acid]",≤ 500
24,O=C(OCc1cc(C(F)(F)F)cc(C(F)(F)F)c1)N1CCCn2nc(CN[C@H]3CC[C@@H](C(=O)O)CC3)cc2C1 [Example 288],≤ 500
